Values joined by “and” are separate entries in the source; they are usually repeats but may differ in a detail not shown here. Equal entries are not always repeated. Where two headings read alike, the source gives them in different places.
Tests used:
[1] = Cytotoxicity (XTT, 72 hr) in HCT116 cells; conditions: human
Procedure: All drug exposures were for 72 hr and cytotoxicity was measured by XTT tetrazolium dye assay.

[2] = system: DC-3F/ADX cells; assay: Cytotoxicity toward DC-3F/ADX cells; assay type: cell-based, hamster
[3] = system: CCRF/VM-1 cells; assay: Intracellular accumulation of VP-16 in CCRF/VM-1 cells; conditions: Homo sapiens, 0.5 h, read-out: increase of VP-16 accumulation
[4] = Solubility; assay type: physicochemical; conditions: at concentrations higher than […]
[5] = system: CCRF-CEM cells; assay: Cytotoxicity / growth inhibition of CCRF-CEM leukemic cells; conditions: Homo sapiens
[6] = system: CCRF-CEM/VM-1 cells; assay: Cytotoxicity toward VM-26-resistant CCRF-CEM/VM-1 cells (mutated Topo II gene); assay type: cell-based, human; conditions: Homo sapiens, CCRF-CEM, read-out: IC50 of reversing agent
[7] = system: DC-3F/ADII cells
[8] = system: P388/O tumor; assay: Combination therapy of adriamycin & 5-N-acetyl-ardeemin or verapamil in B6D2F1 mice bearing P388/O tumor; conditions: 5NAc-Ardm 70 mg/kg;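 note: male BDF mice carrying P388/O given intraperitoneally, dosing begun on day 1 on a QDX4, QWX2 schedule, five animals per dose level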
[9] = system: CCRF-CEM cells; assay: Accumulation of VP-16 in CCRF-CEM cells preloaded with [3H]VP-16; conditions: Homo sapiens, 0.5 h, read-out: increase of intracellular accumulation of VP-16
[10] = system: CCRF-CEM cells; assay: Two drug combination study of vinblastine and 5-N-acetylardeemin on CCRF-CEM, 72 hr, XTT assay; assay type: cell-based; conditions: Homo sapiens, Table 2, drug alone, read-out: Dm (median-effect concentration)
Text: CCRF-CEM Cell Line at 72-HR Exposure Time. Based on XTT

[11] = system: DC-3F hamster lung cells; assay: Cytotoxicity toward DC-3F hamster lung cells; conditions: Mesocricetus auratus, DC3F
[12] = system: CCRF-CEM cells; assay: Influx of [3H]VP-16 in CCRF-CEM cells; assay type: cell-based, human; conditions: Homo sapiens, CCRF-CEM, 0.5 h, read-out: increase of VP-16 accumulation
[13] = system: CCRF-CEM cells; assay: Intracellular accumulation of [3H]vinblastine in CCRF-CEM cells; assay type: cell-based, human; conditions: 30 μM
Procedure: (§1) *Cells were preloaded with [^3 H]
(§2) times (or without wash) with 100 ml cold medium to remove extracellular
(§3) with or without a reverse prenyl compound or an MDRreversing agent. Cells
(§4) were then separated from radioactive medium by microfuge oillayer method.
(§5) Extracellular space counts carried down # by cells (^3 HInulin space
(§6) were subtracted from the total radioactive counts.

[14] = system: P388/DX leukemic cells; assay: Drug combination of adriamycin and 5-N-acetyl-ardeemin against P388/DX cell growth (XTT); assay type: cell-based; conditions: drug alone
Text: | microplate, 25,000 cell/well, N = 2.

[15] = system: P388/DX tumor; assay: Combination therapy of adriamycin & 5-N-acetyl-ardeemin or verapamil in B6D2F1 mice bearing P388/DX tumor;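 note: male BDF mice implanted intraperitoneally with P388/DX cells, 10^6 per mouse, dosed from day 1 on a QDX4, QWX2 schedule, five mice per dose group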; conditions: 5NAc-Ard. 70 mg/kg
[16] = system: vinblastine-resistant CCRF-CEM cells (CCRF-CEM/VBL100); assay: Two drug combination study of vinblastine and 5-N-acetylardeemin on vinblastine-resistant CCRF-CEM, 72 hr, XTT assay; assay type: cell-based, human; set-up: dose of drug at FA (drug alone): unit not given here; conditions: for Dose reduction index / dose of drug at FA (drug alone): Table 3
[17] = system: P388/DX; assay: Survival time evaluation for BDF mice bearing P388/DX; conditions: for survival time: individual mice
[18] = system: KBV-1 (vinblastine resistant) tumor cell lines; conditions: in words; cited from earlier work
[19] = system: CCRF-CEM/VLB-100 cells; assay: Intracellular accumulation of [3H]vinblastine in CCRF-CEM/VLB-100 cells; assay type: cell-based, human; conditions: 30 μM
Procedure: as §1, §2, §3, §4, §5, §6

[20] = system: DC-3F/ADII cells; assay: cells; conditions: Mesocricetus auratus, DC3F
[21] = system: P388 leukemic cells; assay: Drug combination of adriamycin and 5-N-acetyl-ardeemin against P388 cell growth (XTT); conditions: Mus musculus, P388, drug alone
[22] = system: P388/0; assay: Survival time evaluation for BDF mice bearing P388/0; conditions: for survival time: individual mice
[23] = system: CCRF-CEM/VBL100 cells; assay: cells; conditions: Homo sapiens
[24] = system: vinblastine-resistant CCRF-CEM cells (CCRF-CEM/VBL100); assay: Two drug combination study of vinblastine and 5-N-acetylardeemin on vinblastine-resistant CCRF-CEM, 72 hr, XTT assay; assay type: cell-based, human
Text: Vinblastine-resistant CCRF-CEM Cell Line at 72-HR Exposure Time.
Based on XTT Assay. (large-scale study)

[25] = apparently through calcium antagonism; cited from earlier work
[26] = read-out: IC50 for inhibiting cell growth, Table 7, DC-3F/SDII

**Q.** For `C=CC(C)(C)C12CC3c4nc5ccccc5c(=O)n4C(C)C(=O)N3C1N(C(C)=O)c1ccccc12` (centres unmarked) [5-N-Acetylardeemin], which MNTC at 72 h [1] is on record?
**A.** ≥ 2200 nM

**Q.** And the IC50 ([2]; DC3F/ADX, DC-3F/ADX)?
**A.** 3.69 µM

**Q.** What about the “(C)/(A)” value ([2]; IC50 ratio DC-3F/ADX to DC-3F, * collaterally sensitive) of the same molecule?
**A.** 0.49 X

**Q.** And the fold induction at 30 µM [3]?
**A.** 1.95

**Q.** What about the solubility [4] of the same molecule?
**A.** diminished solubility

**Q.** What about the IC50 ([5]; Table 6, CCRF-CEM) of the same molecule?
**A.** 17.2 µM

**Q.** And the IC50 ([5]; human leukemic CCRF-CEM cells)?
**A.** 29.8 µM

**Q.** What about the IC50 ([5]; read-out: IC50 of reversing agent, Table 6B, CCRF-CEM) of the same molecule?
**A.** 29.2 µM

**Q.** What about the IC50 [6] of the same molecule?
**A.** 39.4 µM

**Q.** What about the “(B)/(A)” value ([7]; IC50 ratio DC-3F/ADII to DC-3F, * collaterally sensitive) of the same molecule?
**A.** 2.2 X

**Q.** What about the IC50 [7, 26] of the same molecule?
**A.** 1.59 µM

**Q.** And the “% ILS” value [8]?
**A.** +2%

**Q.** And the MST [8]?
**A.** 7.75 days

**Q.** And the Days survived ([8]; individual mice 1-5)?
**A.** 8.5 days and 7.0 days and 8.25 days and 6.5 days

**Q.** What about the fold induction at 30 µM [9] of the same molecule?
**A.** 3.9

**Q.** What about the IC50 [10] of the same molecule?
**A.** 18.8 µM

**Q.** What about the IC50 ([11]; read-out: IC50 (A), mean ± spread, mean of the determinations) of the same molecule?
**A.** 7.51 ± 2.58 µM

**Q.** What about the IC50 ([11]; read-out: IC50 for inhibiting cell growth, Table 7, DC-3F) of the same molecule?
**A.** 3.74 µM

**Q.** And the IC50 ([11]; relative cytotoxicity, DC-3F)?
**A.** 5.06 µM

**Q.** And the activation at 30 µM [12]?
**A.** 66%

**Q.** And the “[3H]vinblastine accumulation” value ([13]; washed)?
**A.** 32.73 fmole/10^3 cells

**Q.** What about the “[3H]vinblastine accumulation” value ([13]; without wash) of the same molecule?
**A.** 37.45 fmole/10^3 cells

**Q.** What about the IC50 [14] of the same molecule?
**A.** 65.9 µM

**Q.** What about the “% ILS” value [15] of the same molecule?
**A.** 0%

**Q.** And the MST [15]?
**A.** 7.55 days

**Q.** What about the Days survived ([15]; individual mice 1-5) of the same molecule?
**A.** 6.5 days and 7.25 days and 8.0 days

**Q.** What about the IC50 ([16]; Homo sapiens, CCRF-CEM, Table 3, drug alone, read-out: Dm (median-effect concentration)) of the same molecule?
**A.** 19.4 µM

**Q.** And the Dose reduction index ([16]; FA .9843)?
**A.** 55.57

**Q.** What about the “dose of drug at FA (drug alone)” value ([16]; FA .9843) of the same molecule?
**A.** 555.6899

**Q.** And the Dose reduction index ([16]; FA .9861)?
**A.** 61.43

**Q.** And the “dose of drug at FA (drug alone)” value ([16]; FA .9861)?
**A.** 614.2689

**Q.** And the Dose reduction index ([16]; FA .9898)?
**A.** 79.19

**Q.** What about the “dose of drug at FA (drug alone)” value ([16]; FA .9898) of the same molecule?
**A.** 791.8969

**Q.** And the “% ILS” value ([17]; 5N-acetylardeemin 3.33 mg/kg)?
**A.** 5%

**Q.** What about the MST ([17]; 5N-acetylardeemin 3.33 mg/kg) of the same molecule?
**A.** 7.63

**Q.** What about the survival time ([17]; 5N-acetylardeemin 3.33 mg/kg) of the same molecule?
**A.** 6.5 and 7.0 and 8.0 and 9.0

**Q.** What about the “% ILS” value ([17]; 5N-acetylardeemin 10 mg/kg) of the same molecule?
**A.** 2%

**Q.** What about the MST ([17]; 5N-acetylardeemin 10 mg/kg) of the same molecule?
**A.** 7.42

**Q.** And the survival time ([17]; 5N-acetylardeemin 10 mg/kg)?
**A.** 7.0 and 7.25 and 8.0

**Q.** What about the “% ILS” value ([17]; 5N-acetylardeemin 30 mg/kg) of the same molecule?
**A.** -7%

**Q.** What about the MST ([17]; 5N-acetylardeemin 30 mg/kg) of the same molecule?
**A.** 6.75

**Q.** What about the survival time ([17]; 5N-acetylardeemin 30 mg/kg) of the same molecule?
**A.** 6.5 and 7.0

**Q.** What about the “reversal of multidrug resistance” value [18] of the same molecule?
**A.** one of the most potent known agents for reversal of multidrug resistance

**Q.** What about the “[3H]vinblastine accumulation” value ([19]; washed) of the same molecule?
**A.** 12.78 fmole/10^3 cells

**Q.** What about the “[3H]vinblastine accumulation” value ([19]; without wash) of the same molecule?
**A.** 35.44 fmole/10^3 cells

**Q.** What about the IC50 ([20]; read-out: IC50 (B), DC-3F/ADII) of the same molecule?
**A.** 16.8 µM

**Q.** What about the IC50 [20, 26] of the same molecule?
**A.** 1.07 µM

**Q.** What about the IC50 [21] of the same molecule?
**A.** 43.7 µM

**Q.** And the “% ILS” value ([22]; 5N-acetylardeemin 3.33 mg/kg)?
**A.** -2%

**Q.** What about the MST ([22]; 5N-acetylardeemin 3.33 mg/kg) of the same molecule?
**A.** 7.25

**Q.** And the survival time ([22]; 5N-acetylardeemin 3.33 mg/kg)?
**A.** 6.0 and 7.0 and 8.0

**Q.** What about the “% ILS” value ([22]; 5N-acetylardeemin 10 mg/kg) of the same molecule?
**A.** -10%

**Q.** And the MST ([22]; 5N-acetylardeemin 10 mg/kg)?
**A.** 6.67

**Q.** And the survival time ([22]; 5N-acetylardeemin 10 mg/kg)?
**A.** 60. and 6.5 and 7.5

**Q.** And the “% ILS” value ([22]; 5N-acetylardeemin 30 mg/kg)?
**A.** -16%

**Q.** What about the MST ([22]; 5N-acetylardeemin 30 mg/kg) of the same molecule?
**A.** 6.25

**Q.** And the survival time ([22]; 5N-acetylardeemin 30 mg/kg)?
**A.** 6.0 and 6.5

**Q.** What about the IC50 ([23]; Table 6, CCRF-CEM/VBL) of the same molecule?
**A.** 6.99 µM

**Q.** And the IC50 ([23]; read-out: IC50 of reversing agent, Table 6B, CCRF-CEM/VBL)?
**A.** 18.1 µM

**Q.** And the “dose reduction in combination” value ([24]; 1:2000 ratio, at 98.4% inhibition)?
**A.** 55 fold

**Q.** And the IC50 ([24]; Homo sapiens, CCRF-CEM, Table 4 (large-scale study), drug alone, read-out: Dm (median-effect concentration))?
**A.** 29.8 µM

**Q.** Which vasodilator activity [25] does the source give for `C=CC(C)(C)[C@@]12C[C@H]3C(=O)N4[C@@H](C[C@@]5(C(C)(C)C=C)c6ccccc6N[C@@H]45)C(=O)N3[C@@H]1Nc1ccccc12` [Amauromine, amauromine] here?
**A.** vasodilator

From patent US6147076A, “Analogues of N-acetylardeemin, method of preparation and uses thereof” (priority 1996, dated 2000)
